# Measured values as given in the supplement of paper PMC10307832.
# Key:
# Assay in all cases: relative viability (nuclei count vs DMSO), 5 days (fraction); higher = more cells survive
# A-427 = test system: A-427
# In short: (§1)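 Lung cancer cell lines in 1536-well plates got either a single drug or a fixed anchor-drug dose together with five library-drug doses (not always all listed) in √10 steps, by pin tool, on the day after seeding. Nuclei were counted after 5 days, and relative viability is the treated-to-vehicle ratio of nuclei counts. Values are medians of duplicate plates.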
# COR-L 105 = test system: COR-L 105
# In short: as §1
# ChaGo-K-1 = test system: ChaGo-K-1
# In short: as §1
# EKVX = test system: EKVX
# In short: as §1
# EMC-BAC-2 = test system: EMC-BAC-2
# In short: as §1
# H3255 = test system: H3255
# In short: as §1
# HCC-366 = test system: HCC-366
# In short: as §1
# LK-2 = test system: LK-2
# In short: as §1
# LOU-NH91 = test system: LOU-NH91
# In short: as §1
# NCI-H1563 = test system: NCI-H1563
# In short: as §1
# NCI-H1666 = test system: NCI-H1666
# In short: as §1
# NCI-H1734 = test system: NCI-H1734
# In short: as §1
# NCI-H1755 = test system: NCI-H1755
# In short: as §1
# NCI-H1792 = test system: NCI-H1792
# In short: as §1
# NCI-H1975 = test system: NCI-H1975
# In short: as §1
# NCI-H2170 = test system: NCI-H2170
# In short: as §1
# NCI-H23 = test system: NCI-H23
# In short: as §1
# NCI-H441 = test system: NCI-H441
# In short: as §1
# NCI-H520 = test system: NCI-H520
# In short: as §1
# NCI-H596 = test system: NCI-H596
# In short: as §1
# PC-3 [JPC-3] = test system: PC-3 [JPC-3]
# In short: as §1
# SK-MES-1 = test system: SK-MES-1
# In short: as §1
compound,measurement,setting,value
CC1(C)CCC(c2ccc(Cl)cc2)=C(CN2CCN(c3ccc(C(=O)NS(=O)(=O)c4ccc(N[C@H](CCN5CCOCC5)CSc5ccccc5)c(S(=O)(=O)C(F)(F)F)c4)cc3)CC2)C1 [Navitoclax] + CS(=O)(=O)N1CCN(Cc2cc3nc(-c4cccc5[nH]ncc45)nc(N4CCOCC4)c3s2)CC1 [Pictilisib] (partner 1 µM),relative viability,A-427; first compound 0.005 µM,0.675
same,relative viability,A-427; first compound 0.01581 µM,0.675
same,relative viability,A-427; first compound 0.05 µM,0.659
same,relative viability,A-427; first compound 0.1581 µM,0.753
same,relative viability,A-427; first compound 0.5 µM,0.799
same,relative viability,COR-L 105; first compound 0.005 µM,0.352
same,relative viability,COR-L 105; first compound 0.01581 µM,0.45
same,relative viability,COR-L 105; first compound 0.05 µM,0.41
same,relative viability,COR-L 105; first compound 0.1581 µM,0.368
same,relative viability,COR-L 105; first compound 0.5 µM,0.308
same,relative viability,ChaGo-K-1; first compound 0.005 µM,0.645
same,relative viability,ChaGo-K-1; first compound 0.01581 µM,0.799
same,relative viability,ChaGo-K-1; first compound 0.05 µM,0.648
same,relative viability,ChaGo-K-1; first compound 0.1581 µM,0.641
same,relative viability,ChaGo-K-1; first compound 0.5 µM,0.667
same,relative viability,EKVX; first compound 0.005 µM,0.487
same,relative viability,EKVX; first compound 0.01581 µM,0.611
same,relative viability,EKVX; first compound 0.05 µM,0.427
same,relative viability,EKVX; first compound 0.1581 µM,0.41
same,relative viability,EKVX; first compound 0.5 µM,0.452
same,relative viability,EMC-BAC-2; first compound 0.005 µM,0.506
same,relative viability,EMC-BAC-2; first compound 0.01581 µM,0.646
same,relative viability,EMC-BAC-2; first compound 0.05 µM,0.565
same,relative viability,EMC-BAC-2; first compound 0.1581 µM,0.548
same,relative viability,EMC-BAC-2; first compound 0.5 µM,0.6
same,relative viability,H3255; first compound 0.005 µM,0.524
same,relative viability,H3255; first compound 0.01581 µM,0.528
same,relative viability,H3255; first compound 0.05 µM,0.549
same,relative viability,H3255; first compound 0.1581 µM,0.45
same,relative viability,H3255; first compound 0.5 µM,0.461
same,relative viability,HCC-366; first compound 0.005 µM,0.159
same,relative viability,HCC-366; first compound 0.01581 µM,0.174
same,relative viability,HCC-366; first compound 0.05 µM,0.207
same,relative viability,HCC-366; first compound 0.1581 µM,0.107
same,relative viability,HCC-366; first compound 0.5 µM,0.15
same,relative viability,LK-2; first compound 0.005 µM,0.612
same,relative viability,LK-2; first compound 0.01581 µM,0.559
same,relative viability,LK-2; first compound 0.05 µM,0.536
same,relative viability,LK-2; first compound 0.1581 µM,0.657
same,relative viability,LK-2; first compound 0.5 µM,0.511
same,relative viability,LOU-NH91; first compound 0.005 µM,0.51
same,relative viability,LOU-NH91; first compound 0.01581 µM,0.513
same,relative viability,LOU-NH91; first compound 0.05 µM,0.556
same,relative viability,LOU-NH91; first compound 0.1581 µM,0.496
same,relative viability,LOU-NH91; first compound 0.5 µM,0.393
same,relative viability,NCI-H1563; first compound 0.005 µM,0.603
same,relative viability,NCI-H1563; first compound 0.01581 µM,0.667
same,relative viability,NCI-H1563; first compound 0.05 µM,0.577
same,relative viability,NCI-H1563; first compound 0.1581 µM,0.583
same,relative viability,NCI-H1563; first compound 0.5 µM,0.693
same,relative viability,NCI-H1666; first compound 0.005 µM,0.562
same,relative viability,NCI-H1666; first compound 0.01581 µM,0.609
same,relative viability,NCI-H1666; first compound 0.05 µM,0.503
same,relative viability,NCI-H1666; first compound 0.1581 µM,0.394
same,relative viability,NCI-H1666; first compound 0.5 µM,0.475
same,relative viability,NCI-H1734; first compound 0.005 µM,0.455
same,relative viability,NCI-H1734; first compound 0.01581 µM,0.481
same,relative viability,NCI-H1734; first compound 0.1581 µM,0.49
same,relative viability,NCI-H1734; first compound 0.5 µM,0.465
same,relative viability,NCI-H1755; first compound 0.005 µM,0.425
same,relative viability,NCI-H1755; first compound 0.01581 µM,0.434
same,relative viability,NCI-H1755; first compound 0.05 µM,0.252
same,relative viability,NCI-H1755; first compound 0.1581 µM,0.406
same,relative viability,NCI-H1755; first compound 0.5 µM,0.352
same,relative viability,NCI-H1792; first compound 0.005 µM,0.307
same,relative viability,NCI-H1792; first compound 0.01581 µM,0.283
same,relative viability,NCI-H1792; first compound 0.05 µM,0.163
same,relative viability,NCI-H1792; first compound 0.1581 µM,0.285
same,relative viability,NCI-H1792; first compound 0.5 µM,0.29
same,relative viability,NCI-H1975; first compound 0.005 µM,0.295
same,relative viability,NCI-H1975; first compound 0.01581 µM,0.32
same,relative viability,NCI-H1975; first compound 0.05 µM,0.304
same,relative viability,NCI-H1975; first compound 0.1581 µM,0.287
same,relative viability,NCI-H1975; first compound 0.5 µM,0.235
same,relative viability,NCI-H2170; first compound 0.005 µM,0.306
same,relative viability,NCI-H2170; first compound 0.01581 µM,0.327
same,relative viability,NCI-H2170; first compound 0.05 µM,0.334
same,relative viability,NCI-H2170; first compound 0.1581 µM,0.243
same,relative viability,NCI-H2170; first compound 0.5 µM,0.203
same,relative viability,NCI-H23; first compound 0.005 µM,0.479
same,relative viability,NCI-H23; first compound 0.01581 µM,0.498
same,relative viability,NCI-H23; first compound 0.05 µM,0.483
same,relative viability,NCI-H23; first compound 0.1581 µM,0.433
same,relative viability,NCI-H23; first compound 0.5 µM,0.504
same,relative viability,NCI-H441; first compound 0.005 µM,0.441
same,relative viability,NCI-H441; first compound 0.01581 µM,0.606
same,relative viability,NCI-H441; first compound 0.05 µM,0.433
same,relative viability,NCI-H441; first compound 0.1581 µM,0.529
same,relative viability,NCI-H441; first compound 0.5 µM,0.458
same,relative viability,NCI-H520; first compound 0.005 µM,0.305
same,relative viability,NCI-H520; first compound 0.01581 µM,0.374
same,relative viability,NCI-H520; first compound 0.05 µM,0.3
same,relative viability,NCI-H520; first compound 0.1581 µM,0.322
same,relative viability,NCI-H520; first compound 0.5 µM,0.281
same,relative viability,NCI-H596; first compound 0.005 µM,0.405
same,relative viability,NCI-H596; first compound 0.01581 µM,0.399
same,relative viability,NCI-H596; first compound 0.05 µM,0.398
same,relative viability,NCI-H596; first compound 0.1581 µM,0.308
same,relative viability,NCI-H596; first compound 0.5 µM,0.218
same,relative viability,PC-3 [JPC-3]; first compound 0.005 µM,0.648
same,relative viability,PC-3 [JPC-3]; first compound 0.01581 µM,0.701
same,relative viability,PC-3 [JPC-3]; first compound 0.05 µM,0.87
same,relative viability,PC-3 [JPC-3]; first compound 0.1581 µM,0.678
same,relative viability,PC-3 [JPC-3]; first compound 0.5 µM,0.75
same,relative viability,SK-MES-1; first compound 0.005 µM,0.458
same,relative viability,SK-MES-1; first compound 0.01581 µM,0.48
same,relative viability,SK-MES-1; first compound 0.05 µM,0.355
same,relative viability,SK-MES-1; first compound 0.1581 µM,0.321
same,relative viability,SK-MES-1; first compound 0.5 µM,0.334
